Laboratory results: patent US7528115B2, “Carbonate and carbamate prodrugs of thiazolo[4,5-d]pyrimidines” (Anadys Pharmaceuticals, Inc., priority 2006, dated 2009)

Assay: Animal PK: oral availability of 53b in cynomolgus monkeys after dosing of Formula I prodrugs
Format: in vivo
Settings: 53b dosed IV
Protocol: The ability of prodrugs of the present invention to deliver 53a or 53b to the systemic circulation after oral dosing was assessed by methods well known in the art. For Table 1, each test compound was formulated into a solution for oral dosing by dissolving the compound in either an aqueous buffer such as PBS at pH 3 or pH 7 (in a solution of 100% propylene glycol), or in a solution containing a solubilizer such as Cremophor EL, Tween80, or PEG400. The solution of the compound was dosed by oral gavage to cynomolgus monkeys, generally using a group of four animals for each experiment. Plasma samples were collected from the animals at several time points (usually, from 6 to 12 time points were used) within 24 hours. The plasma samples were frozen quickly after collection, and thawed immediately before sample preparation for bioanalysis. […]
Calibration standards were prepared by serial dilution of an initial concentrated standard of the analyte with either animal plasma or cell culture media. […] The acceptance of the calibration curves was based on the accuracy of the back-calculated standard concentrations. A standard was accepted if the accuracy was within 15% for all the standards, except for the lower limit of quantitation for which 20% was applied. The fitted calibration curve was used to calculate the quantity of analyte in samples. […]

Compound: Nc1nc2c(sc(=O)n2C2O[C@H](CO)[C@H](O)[C@H]2O)c(=O)[nH]1 (some centres unmarked) [Compound 53b]
- FPO (10 mg/kg (reference for the ratio)): 1
- AUC(0-inf) (cynomolgus monkey, plasma, 10 mg/kg, cynomolgus monkeys, mean of all individual AUC(0-inf) values): 15.2 µg·h/mL
